Measurements as given in the supplement of paper PMC10307832.

Experiments:
Test in all cases: relative viability (nuclei count vs DMSO), 5 days (fraction); higher = more cells survive
Ponatinib + Decitabine = compound: Cc1ccc(C(=O)Nc2ccc(CN3CCN(C)CC3)c(C(F)(F)F)c2)cc1C#Cc1cnc2cccnn12 [Ponatinib] + Nc1ncn([C@H]2C[C@H](O)[C@@H](CO)O2)c(=O)n1 [Decitabine] (partner 2 µM)
Outline: (§1)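 Medians of duplicate plates are given as relative viability. That measure is the nuclei count in treated wells divided by the count in vehicle wells. Counts were taken on 4× images of lung cancer cell lines in 1536-well plates, 5 days after pin-tool dosing the day after seeding with one drug alone or a fixed anchor-drug dose plus five library-drug doses (not always all listed) in √10 steps.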

Pazopanib + Lapatinib = compound: Cc1ccc(Nc2nccc(N(C)c3ccc4c(C)n(C)nc4c3)n2)cc1S(N)(=O)=O [Pazopanib] + CS(=O)(=O)CCNCc1ccc(-c2ccc3ncnc(Nc4ccc(OCc5cccc(F)c5)c(Cl)c4)c3c2)o1 [Lapatinib] (partner 2 µM)
Outline: as §1

Ponatinib + Alpelisib = compound: Cc1ccc(C(=O)Nc2ccc(CN3CCN(C)CC3)c(C(F)(F)F)c2)cc1C#Cc1cnc2cccnn12 [Ponatinib] + Cc1nc(NC(=O)N2CCC[C@H]2C(N)=O)sc1-c1ccnc(C(C)(C)C(F)(F)F)c1 [Alpelisib] (partner 2 µM)
Outline: as §1

Pazopanib + Alpelisib = compound: Cc1ccc(Nc2nccc(N(C)c3ccc4c(C)n(C)nc4c3)n2)cc1S(N)(=O)=O [Pazopanib] + Cc1nc(NC(=O)N2CCC[C@H]2C(N)=O)sc1-c1ccnc(C(C)(C)C(F)(F)F)c1 [Alpelisib] (partner 2 µM)
Outline: as §1

Row | Cell Line | relative viability (Ponatinib + Decitabine; first compound 0.002 µM) | relative viability (Ponatinib + Decitabine; first compound 0.006325 µM) | relative viability (Ponatinib + Decitabine; first compound 0.06325 µM) | relative viability (Ponatinib + Decitabine; first compound 0.2 µM) | relative viability (Pazopanib + Lapatinib; first compound 0.01 µM) | relative viability (Pazopanib + Lapatinib; first compound 0.03162 µM) | relative viability (Pazopanib + Lapatinib; first compound 0.1 µM) | relative viability (Pazopanib + Lapatinib; first compound 0.3162 µM) | relative viability (Pazopanib + Lapatinib; first compound 1 µM) | relative viability (Ponatinib + Alpelisib; first compound 0.002 µM) | relative viability (Ponatinib + Alpelisib; first compound 0.006325 µM) | relative viability (Ponatinib + Alpelisib; first compound 0.06325 µM) | relative viability (Ponatinib + Alpelisib; first compound 0.2 µM) | relative viability (Pazopanib + Alpelisib; first compound 0.01 µM) | relative viability (Pazopanib + Alpelisib; first compound 0.03162 µM) | relative viability (Pazopanib + Alpelisib; first compound 0.1 µM) | relative viability (Pazopanib + Alpelisib; first compound 0.3162 µM) | relative viability (Pazopanib + Alpelisib; first compound 1 µM)
1 | 201T | 0.849 | 0.862 | 0.914 | 0.811 | 0.971 | 0.998 | 1.04 | 1.04 | 1.06 | 1.02 | 1.03 | 1.08 | 1.02 | 0.959 | 1.06 | 1.02 | 0.998 | 1.05
2 | A549 | 0.238 | 0.294 | 0.324 | 0.295 | 0.967 | 0.977 | 1.07 | 1.1 | 0.914 | 0.772 | 0.931 | 0.949 | 0.634 | 0.798 | 0.685 | 0.828 | 0.746 | 1.01
3 | A-427 | 0.547 | 0.507 | 0.592 | 0.49 | 0.992 | 1.07 | 1 | 1.06 | 1.22 | 1.08 | 1.06 | 1.07 | 0.919 | 1.07 | 1.13 | 1.09 | 1.06 | 1.03
4 | ABC-1 | 1 | 1.03 | 1.16 | 0.91 |  | 1.32 | 1.37 | 0.91 | 1.27 | 1.18 | 0.987 | 1.08 | 0.874 | 0.859 | 1.1 | 0.984 | 1.1 | 1.03
5 | BEN | 0.723 | 0.687 | 0.699 | 0.656 |  | 0.574 | 0.721 | 0.808 | 0.774 | 0.948 | 0.977 | 1.08 | 0.916 | 0.845 | 1.04 | 1.1 | 1.02 | 0.988
6 | CAL-12T |  |  |  |  | 0.483 | 0.669 | 0.69 | 0.733 | 0.816 | 1.03 | 1.12 | 1.46 | 0.979 | 1.21 | 1.32 | 1.11 | 1.35 | 1.27
7 | COR-L23 | 0.391 | 0.427 | 0.504 | 0.424 | 0.966 | 1.07 | 1.06 | 1.2 | 1 | 0.747 | 0.775 | 0.844 | 0.778 | 0.752 | 0.957 | 0.993 | 0.925 | 0.717
8 | COR-L 105 | 0.671 | 0.674 | 0.821 | 0.61 | 0.342 | 0.414 | 0.386 | 0.341 | 0.401 | 0.976 | 0.846 | 1.31 | 0.935 | 0.981 | 1.03 | 1.04 | 1.07 | 1.04
9 | Calu-6 |  |  |  |  | 1.07 | 1.14 | 1.21 | 0.999 | 0.96 | 0.956 | 1.04 | 1.02 | 0.685 | 0.973 | 1.09 | 1.04 | 0.956 | 0.99
10 | ChaGo-K-1 | 0.517 | 0.507 | 0.54 | 0.512 |  |  |  |  |  |  |  |  |  |  |  |  |  | 
11 | EBC-1 |  |  |  |  | 0.184 | 0.251 | 0.232 | 0.247 | 0.232 | 0.78 | 0.836 | 0.903 | 0.846 | 0.914 | 0.907 | 0.913 | 0.914 | 1
12 | EKVX | 0.329 | 0.366 | 0.378 | 0.357 | 0.183 | 0.213 | 0.231 | 0.344 | 0.297 | 0.805 | 0.936 | 1.15 | 0.898 | 0.726 | 0.887 | 0.923 | 0.896 | 1.03
13 | EMC-BAC-2 | 0.927 | 0.899 | 1.04 | 0.842 | 0.735 | 0.921 | 0.915 | 0.904 | 0.991 | 0.695 | 0.707 | 0.82 | 0.721 | 0.702 | 0.764 | 0.808 | 0.767 | 0.747
14 | EPLC-272H | 0.334 | 0.399 | 0.416 | 0.326 | 0.638 | 0.797 | 1.01 | 1.14 | 0.802 | 0.781 | 1.12 | 1.12 | 0.942 | 0.734 | 0.966 | 1 | 0.991 | 0.804
15 | H3255 | 0.566 | 0.512 | 0.717 | 0.552 | 0.203 | 0.26 | 0.248 | 0.285 | 0.256 | 0.641 | 0.697 | 0.743 | 0.688 | 0.612 | 0.743 | 0.833 | 0.695 | 0.741
16 | HARA | 0.486 | 0.632 | 0.568 | 0.665 | 0.582 | 0.746 | 0.58 | 0.725 | 0.695 | 0.779 | 0.79 | 0.97 | 0.729 | 0.82 | 0.779 | 0.846 | 0.818 | 0.982
